Source: paper PMC6320863, “Interaction of Chrysin and Its Main Conjugated Metabolites Chrysin-7-Sulfate and Chrysin-7-Glucuronide with Serum Albumin” (International Journal of Molecular Sciences, 2018)

Test system: T1, ochratoxin A–HSA complex
T1 construct: purchased Sigma-Aldrich
Test: Fluorescence anisotropy of ochratoxin A–HSA complex
Format: binding, human
Details: 1.0 µmol/L ochratoxin A, 1.5 µmol/L HSA, flavonoid 2.5–30 μM, PBS pH 7.4, λex 393 nm, λem 446 nm

| SMILES | Fluorescence anisotropy of ochratoxin A |
| --- | --- |
| O=C(O)C1OC(Oc2cc(O)c3c(=O)cc(-c4ccccc4)oc3c2)C(O)C(O)C1O (stereo not drawn) [Chrysin-7-glucuronide, chrysin-7-glucuronide] | failed to affect |
| O=c1cc(-c2ccccc2)oc2cc(OS(=O)(=O)O)cc(O)c12 [Chrysin-7-sulfate, chrysin-7-sulfate] | concentration-dependent decrease |
| O=c1cc(-c2ccccc2)oc2cc(O)cc(O)c12 [Chrysin, 5,7-dihydroxyflavone] | failed to affect |
